Data: paper PMC8333425, “Discovery of a dual Ras and ARF6 inhibitor from a GPCR endocytosis screen” (Nature Communications, 2021)
Where “and” joins values, the source holds several entries; their conditions need not be identical. Equal values may be shown once.

How the values were obtained:
Experiment in all cases: Ras BRET sensor in cells overexpressing K-Ras mutants (Y32A, Y40A, Y32A/Y40A) and AT1R
[1] = target: T1, K-Ras Y32A, Y40A, Y32A/Y40A (Homo sapiens, UniProt P01116, Y32A/Y40A); type: cell-based; details: Rasarfin 50 μM, K-Ras Y32A/Y40A, Bonferroni's multiple comparisons test
T1 construct: expressed in transfected cells; host or cells: HEK293SL
Source text: (§1) Because Tyr32 and Tyr40, located on the switch I domain of Ras, are critical for stabilizing Rasarfin binding through interactions with both the chlorine and isopropyl moiety (Fig. 7a, c), we reasoned that substituting them for Ala residues would negatively impact Rasarfin’s inhibitory action on Ras. […] Because we wanted to assess the inhibitory action of Rasarfin over different Ras subtypes, we mutated the two tyrosine residues to an alanine in K-Ras (Y32A, Y40A, and Y32A/Y40A mutants) within the same Rasarfin binding site found in H-Ras (Lys^5-Thr^74). This domain and residues are perfectly conserved among the Ras family members[44],[45]. WT K-Ras and K-Ras mutants were overexpressed along with AT1R in cells and AngII-mediated activation of Ras was assessed using the Ras BRET sensor (Supplementary Fig. 11a).
(§2) HEK293SL cells were seeded at a density of 7.5 × 10^5 cells per 100-mm dish and 24 h later, transiently transfected as such. For receptor internalization experiments, cells were transfected with 0.12 μg AT1R-RlucII, B2R-RlucII, or β2AR-RlucII and 0.48 μg of either rGFP-CAAX (to assess removal from the PM) or rGFP-FYVE (to assess accumulation in the endosomes). For β-arrestin recruitment assays, cells were transfected with 0.48 μg of receptor-YFP along with 0.12 μg of β-arrestin-RlucII. For β-arrestin/AP-2 binding experiments, cells were transfected with 1 μg Flag-AT1R, 1 μg β2-Adaptin-YFP, and 0.12 μg β-arrestin2-RlucII. For G protein activation, cells were transfected with 3 μg of sp-Flag-AT1R along with either 4.5 μg of the Gαq-polycistronic BRET sensor or 0.24 μg of the Gαi3-RlucII and 0.6 μg of GFP10-Gγ2 and Gβ1 sensors or 0.12 μg PKN-RBD-RlucII and 0.48 μg of rGFP-CAAX. For PKC activation, cells were transfected with 3 μg of sp-Flag-AT1R and 0.18 μg of the PKC sensor. For GTPase activation experiments, cells were transfected with 1 μg Flag-AT1R, 0.48 μg of rGFP-CAAX, and either 0.12 μg of GGA3-PBD-RlucII, PAK-CRIB-RlucII or Raf-RBD-RlucII. For biosensor validation experiments, cells were additionally transfected with 500 ng Flag-K-Ras-WT, Flag-K-Ras-G12V, Flag-K-Ras-SOS-CAAX, HA-ARF6-WT, HA-ARF6-T27N, Myc-Rac1-WT, Myc-Rac1-Q61L or Myc-Rac1-T17N. For PI3K/Akt activation experiments, cells were transfected with 0.48 μg of rGFP-CAAX and 0.12 μg of Akt (PH)-RlucII. After 18 h of transfection, the media was replaced and cells were divided for subsequent experiments. Cells were detached and seeded onto poly-L-ornithine-coated 96-well flat white bottom plates (BrandTech Scientific) at a density of 2.5 × 10^4 cells per well in media. The next day, cells were washed once with Tyrode’s buffer (140 mM NaCl, 2.7 mM KCl, 1 mM CaCl2, 12 mM NaHCO3, 5.6 mM D-glucose, 0.5 mM MgCl2, 0.37 mM NaH2PO4, 25 mM HEPES, pH 7.4) and left in Tyrode’s buffer. For kinetics of β-arrestin recruitment or β-arrestin binding to receptor and AP-2 experiments, cells were serum starved for 30 min, pretreated with 21 (50 µM) or Barbadin (100 µM) for 30 min, stimulated with 100 nM AngII or 1 µM BK and BRET signals were monitored at indicated times using a Victor X Light plate reader (PerkinElmer). Coelenterazine H (final concentration of 5 µM) was added 3–5 min prior to BRET measurements. Filter set was 460/80 nm and 535/30 nm for detecting the RlucII Renilla luciferase (donor) and YFP (acceptor) light emissions, respectively. The BRET ratio was determined by calculating the ratio of the light emitted by YFP over the light emitted by the RlucII. For G protein activation, cells were serum starved, pretreated with compounds for 30 min, stimulated with 100 nM AngII for 2 min (Gαq, Gαi3, and Rho sensors) or 5 min (PKC sensor). For the kinetics of GTPase and PI3K/Akt activation, cells were serum starved, pretreated with 21 (50 µM) or Wortmannin (200 nM) for 30 min, stimulated with ligand (100 nM AngII or 100 ng/ml EGF) and BRET signals were monitored at indicated times. […]

[2] = target: T2, K-Ras Y32A, Y40A, Y32A/Y40A (Homo sapiens, UniProt P01116, Y32A); type: cell-based; details: Rasarfin 50 μM, K-Ras Y32A
T2 construct: expressed in transfected cells; host or cells: HEK293SL
Source text: as §1, §2

[3] = system: K-Ras Y32A, Y40A, Y32A/Y40A; type: cell-based, human; details: 50 μM
Source text: as §1, §2

[4] = target: T3, K-Ras Y32A, Y40A, Y32A/Y40A (Homo sapiens, UniProt P01116, Y40A); type: cell-based; details: Rasarfin 50 μM, K-Ras Y40A
T3 construct: expressed in transfected cells; host or cells: HEK293SL
Source text: as §1, §2

[5] = Bonferroni's multiple comparisons test

CC(C)C(=O)N1CCN(c2ccc(NC(=O)c3cc4ccccc4o3)cc2Cl)CC1 [Compound 21]
AngII-promoted BRET, Mean Diff. DMSO - Rasarfin [1]: 0.004167 | AngII-promoted BRET [2]: 0.1037 and 0.088 and 0.0995 and 0.056 | AngII-promoted BRET, Mean Diff. DMSO - Rasarfin [2, 5]: 0.006083 | AngII-mediated activation of K-Ras Y32A, Y40A, Y32A/Y40A mutants (Ras BRET sensor) [3]: only WT was significantly inhibited by Rasarfin | AngII-promoted BRET [4]: 0.072 and 0.05667 and 0.08167 and 0.04433 | AngII-promoted BRET, Mean Diff. DMSO - Rasarfin [4, 5]: 0.011
